This is an account of results in patent publication US8859549B2, “Potassium channel modulators” (AbbVie, Inc., priority 2011, dated 2014).

The target in the assay is T1, KCNQ 2/3 channels (Homo sapiens, UniProt O43525+O43526).
T1 construct: expressed in transfected cells; host or cells: HEK293
Nature of the assay: KCNQ 2/3 channel activation, thallium flux FLIPR assay (BTC-AM dye). The class given is cell-based. To be noted: for Emax: HEK293, maximum response relative to the response of 10 μM retigabine (set at 100%), HEK293 KCNQ2/KCNQ3 cells, read-out: % MAX; for EC50: HEK293 cells stably expressing human KCNQ2 and KCNQ3 subunits, thallium-induced fluorescence, 4 min compound incubation. Put shortly: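 HEK293 cells stably expressing human KCNQ2/KCNQ3 were loaded with BTC-AM (3 μg/mL, 2 h, RT) and preincubated with compound for 4 min in pH 7.3 gluconate buffer containing 0.1 mM ouabain. Flux was triggered by 6 mM TlNO3/10 mM K2SO4 and read for 3 min; EC50 came from summed responses over basal, with maximum relative to 10 μM retigabine (100%).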

`O=C(CC1CC2CCC1C2)Nn1nc(C(O)c2ccccc2)c2ccccc2c1=O` (racemic) [Example 102, (±)-2-[(exo)-bicyclo[2.2.1]hept-2-yl]-N-{4-[hydroxy(phenyl)methyl]-1-oxophthalazin-2(1H)-yl}acetamide]: the Emax amounted to 212% and the midpoint of the response, the EC50, lay at 0.894 µM.

For `N#Cc1ccc(S(=O)(=O)c2nn(NC(=O)Cc3cc(F)cc(F)c3)c(=O)c3ccccc23)cc1` [Example 223, N-{4-[(4-cyanophenyl)sulfonyl]-1-oxophthalazin-2(1H)-yl}-2-(3,5-difluorophenyl)acetamide], the Emax was 86.2% and a half-maximal effect (EC50) was put at 0.149 µM.

Consider `O=C(Cc1ccc(F)cc1)Nn1nc(N2CCOCC2)c2ccccc2c1=O` [Example 150, 2-(4-fluorophenyl)-N-[4-(morpholin-4-yl)-1-oxophthalazin-2(1H)-yl]acetamide], for which the Emax was determined as 71.7% and the EC50 (in general, the concentration needed to bring the measured effect to its halfway point) came to 12.9 µM.

On to `O=C(CC1CC2CCC1C2)Nn1nc(-c2ccc(Cl)nc2)c2ccccc2c1=O` (racemic) [Example 4, (±)-2-[(exo)-bicyclo[2.2.1]hept-2-yl]-N-[4-(6-chloropyridin-3-yl)-1-oxophthalazin-2(1H)-yl]acetamide], for which the Emax amounted to 133% and the EC50 amounted to 0.0606 µM.

For `O=C(Cc1ccc2ccccc2c1)Nn1nc(N2CCOCC2)c2ccccc2c1=O` [Example 166, N-[4-(morpholin-4-yl)-1-oxophthalazin-2(1H)-yl]-2-(naphthalen-2-yl)acetamide], the Emax was determined as 15.6%.

In the case of `CCOC(=O)NCc1nn(NC(=O)Cc2ccc(Cl)cc2)c(=O)c2ccccc12` [Example 85, ethyl[(3-{[(4-chlorophenyl)acetyl]amino}-4-oxo-3,4-dihydrophthalazin-1-yl)methyl]carbamate], the Emax was found to be 87.3% and the EC50 turned out to be 5.35 µM.

Consider `O=C(Cc1cc(F)cc(F)c1)Nn1nc(S(=O)(=O)Cc2ccccc2)c2ccccc2c1=O` [Example 215, N-[4-(benzylsulfonyl)-1-oxophthalazin-2(1H)-yl]-2-(3,5-difluorophenyl)acetamide], for which the Emax was 45% and it took 0.916 µM to reach a half-maximal effect (EC50).

With `O=C(Cc1cc(F)ccc1F)Nn1nc(N2CCOCC2)c2ccccc2c1=O` [Example 176, 2-(2,5-difluorophenyl)-N-[4-(morpholin-4-yl)-1-oxophthalazin-2(1H)-yl]acetamide], the Emax is 18%.

With `O=C(Cc1cccc(Oc2ccccc2)c1)Nn1nc(N2CCOCC2)c2ccccc2c1=O` [Example 131, N-[4-(morpholin-4-yl)-1-oxophthalazin-2(1H)-yl]-2-(3-phenoxyphenyl)acetamide], the Emax is 17.1%.

For `CCC1CN(c2nn(NC(=O)CC3CC4CCC3C4)c(=O)c3ccccc23)CCO1` (racemic) [Example 220, (±)-2-[(exo)-bicyclo[2.2.1]hept-2-yl]-N-[4-(2-ethylmorpholin-4-yl)-1-oxophthalazin-2(1H)-yl]acetamide], the Emax is 139% and the EC50 was 0.0579 µM.

For the compound `O=C(Cc1cc(F)cc(F)c1)Nn1nc(Sc2ccc(Br)cc2)c2ccccc2c1=O` [Example 197, N-{4-[(4-bromophenyl)sulfanyl]-1-oxophthalazin-2(1H)-yl}-2-(3,5-difluorophenyl)acetamide], the Emax came out at 120% and the EC50 stood at 0.049 µM.

With `O=C(CC1CC2CCC1C2)Nn1nc(C(=O)N2CCOCC2)c2ccccc2c1=O` (racemic) [Example 95, (±)-2-[(exo)-bicyclo[2.2.1]hept-2-yl]-N-[4-(morpholin-4-ylcarbonyl)-1-oxophthalazin-2(1H)-yl]acetamide], the Emax is 73%.

`CC(C)(C)OC(=O)Nc1ccc(Sc2nn(NC(=O)Cc3ccc(Cl)cc3)c(=O)c3ccccc23)cc1` [Example 103, tert-butyl{4-[(3-{[(4-chlorophenyl)acetyl]amino}-4-oxo-3,4-dihydrophthalazin-1-yl)sulfanyl]phenyl}carbamate]: the Emax stood at 76%.

Consider `COc1ccc(CC(=O)Nn2nc(N3CCOCC3)c3ccccc3c2=O)cc1OC` [Example 172, 2-(3,4-dimethoxyphenyl)-N-[4-(morpholin-4-yl)-1-oxophthalazin-2(1H)-yl]acetamide], for which the Emax worked out at 51.7%.

Regarding `O=C(Cc1ccccc1)Nn1nc(N2CCOCC2)c2ccccc2c1=O` [Example 111, N-[4-(morpholin-4-yl)-1-oxophthalazin-2(1H)-yl]-2-phenylacetamide], the Emax turned out to be 70.7% and the EC50 worked out at 17.3 µM.

`O=C(Cc1ccc(Oc2ccccc2)cc1)Nn1nc(N2CCOCC2)c2ccccc2c1=O` [Example 163, N-[4-(morpholin-4-yl)-1-oxophthalazin-2(1H)-yl]-2-(4-phenoxyphenyl)acetamide]: the Emax turned out to be 30.8%.

Regarding `CC(C)(C)COC(=O)NCc1nn(NC(=O)Cc2ccc(Cl)cc2)c(=O)c2ccccc12` [Example 184, 2,2-dimethylpropyl[(3-{[(4-chlorophenyl)acetyl]amino}-4-oxo-3,4-dihydrophthalazin-1-yl)methyl]carbamate], the Emax was determined as 62.7% and a half-maximal response (EC50) required 1.32 µM.

For `CC(C)(C)OC(=O)NC(c1ccccc1)c1nn(NC(=O)CC2CC3CCC2C3)c(=O)c2ccccc12` (racemic) [Example 179, tert-butyl(±)-[(3-{[(exo)-bicyclo[2.2.1]hept-2-ylacetyl]amino}-4-oxo-3,4-dihydrophthalazin-1-yl)(phenyl)methyl]carbamate], the Emax stood at 185% and the half-maximal effective concentration (EC50) is 0.267 µM.

`O=C(Cc1cc(F)cc(F)c1)Nn1nc(N2CCOCC2)c2ccccc2c1=O` [Example 1, 2-(3,5-difluorophenyl)-N-[4-(morpholin-4-yl)-1-oxophthalazin-2(1H)-yl]acetamide]: the Emax was 130% and the response was half-maximal at 4.46 µM (EC50).

`O=C(Cc1ccc(Cl)cc1)Nn1nc(N2CCOCC2)c2ccccc2c1=O` [Example 2, 2-(4-chlorophenyl)-N-[4-(morpholin-4-yl)-1-oxophthalazin-2(1H)-yl]acetamide]: the Emax worked out at 117% and the EC50 stood at 2.7 µM.

As for `CN(C)C(=O)c1nn(NC(=O)CC2CC3CCC2C3)c(=O)c2ccccc12` (racemic) [Example 56, (±)-3-{[(exo)-bicyclo[2.2.1]hept-2-ylacetyl]amino}-N,N-dimethyl-4-oxo-3,4-dihydrophthalazine-1-carboxamide], the Emax was found to be 84.9%.

Consider `CC(C)(C)OC(=O)NCc1nn(NC(=O)Cc2ccc(C(F)(F)F)cc2)c(=O)c2ccccc12` [Example 118, tert-butyl{[4-oxo-3-({[4-(trifluoromethyl)phenyl]acetyl}amino)-3,4-dihydrophthalazin-1-yl]methyl}carbamate], for which the Emax was 40.7% and the EC50 was 2.85 µM.

Turning to `O=C(Cc1ccc(Cl)cc1)Nn1nc(Cc2ccc(Cl)nc2)c2ccccc2c1=O` [Example 32, 2-(4-chlorophenyl)-N-{4-[(6-chloropyridin-3-yl)methyl]-1-oxophthalazin-2(1H)-yl}acetamide], the Emax was 46.2% and the EC50 worked out at 0.148 µM.

For the compound `O=C(Cc1cccc(O)c1)Nn1nc(N2CCOCC2)c2ccccc2c1=O` [Example 143, 2-(3-hydroxyphenyl)-N-[4-(morpholin-4-yl)-1-oxophthalazin-2(1H)-yl]acetamide], the Emax was 43.8%.

As to `CC(C)(CC(=O)Nn1nc(-c2ccnc(Cl)c2)c2ccccc2c1=O)c1ccccc1` [Example 48, N-[4-(2-chloropyridin-4-yl)-1-oxophthalazin-2(1H)-yl]-3-methyl-3-phenylbutanamide], the Emax came out at 133% and the midpoint of the response, the EC50, lay at 0.389 µM.

In the case of `O=C(CC1CC2CCC1C2)Nn1nc(N2CCCC2)c2ccccc2c1=O` (racemic) [Example 23, (±)-2-[(exo)-bicyclo[2.2.1]hept-2-yl]-N-[1-oxo-4-(pyrrolidin-1-yl)phthalazin-2(1H)-yl]acetamide], the Emax turned out to be 147% and a half-maximal response (EC50) required 0.0628 µM.

Take `Cc1ccsc1-c1nn(NC(=O)Cc2ccc(Cl)cc2)c(=O)c2ccccc12` [Example 15, 2-(4-chlorophenyl)-N-[4-(3-methylthiophen-2-yl)-1-oxophthalazin-2(1H)-yl]acetamide]: the Emax is 124% and the midpoint of the response, the EC50, lay at 0.858 µM.

As for `NC(=O)c1cc(-c2nn(NC(=O)CC3CC4CCC3C4)c(=O)c3ccccc23)ccn1` (racemic) [Example 72, (±)-4-(3-{[(exo)-bicyclo[2.2.1]hept-2-ylacetyl]amino}-4-oxo-3,4-dihydrophthalazin-1-yl)pyridine-2-carboxamide], the Emax is 13.7%.

For `O=C(Cc1cc(F)cc(F)c1)Nn1nc(S(=O)(=O)c2ccc(Br)cc2)c2ccccc2c1=O` [Example 202, N-{4-[(4-bromophenyl)sulfonyl]-1-oxophthalazin-2(1H)-yl}-2-(3,5-difluorophenyl)acetamide], the Emax came out at 106% and a half-maximal response (EC50) required 0.0647 µM.

With `O=C(Cc1cccc2ccccc12)Nn1nc(N2CCOCC2)c2ccccc2c1=O` [Example 165, N-[4-(morpholin-4-yl)-1-oxophthalazin-2(1H)-yl]-2-(naphthalen-1-yl)acetamide], the Emax was found to be 7.96%.

With `O=C(Cc1ccc(Cl)cc1)Nn1nc(CNC(=O)OC2CCCC2)c2ccccc2c1=O` [Example 187, cyclopentyl[(3-{[(4-chlorophenyl)acetyl]amino}-4-oxo-3,4-dihydrophthalazin-1-yl)methyl]carbamate], the Emax is 32%.

Take `N#Cc1ccc(S(=O)(=O)c2nn(NC(=O)Cc3ccc(Cl)cc3)c(=O)c3ccccc23)cc1` [Example 222, 2-(4-chlorophenyl)-N-{4-[(4-cyanophenyl)sulfonyl]-1-oxophthalazin-2(1H)-yl}acetamide]: the Emax came to 90% and the EC50 stood at 0.0979 µM.
